Reference: ChEMBL document CHEMBL5579792, “Natural products fragment-based design and synthesis of a novel pentacyclic ring system as potential MAPK inhibitor” (Bioorg Med Chem Lett, 2024)
Values belong to the compound of their own block, whether it stands above or below them. Calls of active or inactive are those of the source. The rule behind the calls is not given here.

Experiments:
A549 [1] = test: Antiproliferative activity against human A549 cells assessed as inhibition of cell growth by MTT assay; assay type: functional, cell-based
MDA-MB-231 = test: Antiproliferative activity against human MDA-MB-231 cells assessed as inhibition of cell growth by MTT assay; assay type: functional, cell-based
HCT-116 = test: Antiproliferative activity against human HCT-116 cells assessed as inhibition of cell growth by MTT assay; assay type: functional, cell-based
A549 [2] = test: Antiproliferative activity against human A549 cells assessed as inhibition of cell growth measured after 24 hrs by MTT assay; assay type: functional, cell-based; conditions: A549, 24 h
A549 [3] = test: Antiproliferative activity against human A549 cells assessed as inhibition of cell growth measured after 48 hrs by MTT assay; assay type: functional, cell-based; conditions: A549, 48 h
A549 [4] = test: Antiproliferative activity against human A549 cells assessed as inhibition of cell growth measured after 72 hrs by MTT assay; assay type: functional, cell-based; conditions: A549, 72 h
A549 [5] = test: Inhibition of cell migration in human A549 cells at 0.11 uM measured after 24 hrs by scratch assay relative to control; assay type: functional
A549 [6] = test: Inhibition of cell migration in human A549 cells at 0.22 uM measured after 24 hrs by scratch assay relative to control; assay type: functional
A549 [7] = test: Inhibition of cell migration in human A549 cells at 0.34 uM measured after 24 hrs by scratch assay relative to control; assay type: functional
A549 [8] = test: Inhibition of cell migration in human A549 cells at 0.11 uM measured after 48 hrs by scratch assay relative to control; assay type: functional
A549 [9] = test: Inhibition of cell migration in human A549 cells at 0.22 uM measured after 48 hrs by scratch assay relative to control; assay type: functional
A549 [10] = test: Inhibition of cell migration in human A549 cells at 0.34 uM measured after 48 hrs by scratch assay relative to control; assay type: functional
A549 [11] = test: Induction of cell cycle arrest in human A549 cells assessed as accumulation at G0/G1 phase at 0.11 uM incubated for 48 hrs by PI staining based flow cytometry analysis (reference value: 84.47%); assay type: functional
A549 [12] = test: Induction of cell cycle arrest in human A549 cells assessed as accumulation at G2/M phase at 0.11 uM incubated for 48 hrs PI staining based by flow cytometry analysis (reference value: 1.14%); assay type: functional
A549 [13] = test: Induction of cell cycle arrest in human A549 cells assessed as accumulation at S phase at 0.11 uM incubated for 48 hrs by PI staining based flow cytometry analysis (reference value: 12.105%); assay type: functional
A549 [14] = test: Induction of cell cycle arrest in human A549 cells assessed as accumulation at G0/G1 phase at 0.22 uM incubated for 48 hrs by PI staining based flow cytometry analysis (reference value: 84.47%); assay type: functional
A549 [15] = test: Induction of cell cycle arrest in human A549 cells assessed as accumulation at G2/M phase at 0.22 uM incubated for 48 hrs by PI staining based flow cytometry analysis (reference value: 1.14%); assay type: functional
A549 [16] = test: Induction of cell cycle arrest in human A549 cells assessed as accumulation at S phase at 0.22 uM incubated for 48 hrs by PI staining based flow cytometry analysis (reference value: 12.105%); assay type: functional
A549 [17] = test: Induction of cell cycle arrest in human A549 cells assessed as accumulation at G0/G1 phase at 0.34 uM incubated for 48 hrs by PI staining based flow cytometry analysis (reference value: 84.47%); assay type: functional
A549 [18] = test: Induction of cell cycle arrest in human A549 cells assessed as accumulation at G2/M phase at 0.34 uM incubated for 48 hrs by PI staining based flow cytometry analysis (reference value: 1.14%); assay type: functional
A549 [19] = test: Induction of cell cycle arrest in human A549 cells assessed as accumulation at S phase at 0.34 uM incubated for 48 hrs by PI staining based flow cytometry analysis (reference value: 12.105%); assay type: functional
A549 [20] = test: Induction of apoptosis in human A549 cells assessed as live cells at 0.11 uM incubated for 48 hrs by Annexin V/PI staining based flow cytometry analysis (reference value: 90.7%); assay type: functional
A549 [21] = test: Induction of apoptosis in human A549 cells assessed as early apoptotic cells at 0.11 uM incubated for 48 hrs by Annexin V/PI staining based flow cytometry analysis (reference value: 1.79%); assay type: functional
A549 [22] = test: Induction of apoptosis in human A549 cells assessed as late apoptotic cells at 0.11 uM incubated for 48 hrs by Annexin V/PI staining based flow cytometry analysis (reference value: 2.96%); assay type: functional
A549 [23] = test: Induction of apoptosis in human A549 cells assessed as dead cells at 0.11 uM incubated for 48 hrs by Annexin V/PI staining based flow cytometry analysis (reference value: 4.58%); assay type: functional
A549 [24] = test: Induction of apoptosis in human A549 cells assessed as live cells at 0.22 uM incubated for 48 hrs by Annexin V/PI staining based flow cytometry analysis (reference value: 90.7%); assay type: functional
A549 [25] = test: Induction of apoptosis in human A549 cells assessed as early apoptotic cells at 0.22 uM incubated for 48 hrs by Annexin V/PI staining based flow cytometry analysis (reference value: 1.79%); assay type: functional
A549 [26] = test: Induction of apoptosis in human A549 cells assessed as late apoptotic cells at 0.22 uM incubated for 48 hrs by Annexin V/PI staining based flow cytometry analysis (reference value: 2.96%); assay type: functional
A549 [27] = test: Induction of apoptosis in human A549 cells assessed as dead cells at 0.22 uM incubated for 48 hrs by Annexin V/PI staining based flow cytometry analysis (reference value: 4.58%); assay type: functional
A549 [28] = test: Induction of apoptosis in human A549 cells assessed as live cells at 0.34 uM incubated for 48 hrs by Annexin V/PI staining based flow cytometry analysis (reference value: 90.7%); assay type: functional
A549 [29] = test: Induction of apoptosis in human A549 cells assessed as early apoptotic cells at 0.34 uM incubated for 48 hrs by Annexin V/PI staining based flow cytometry analysis (reference value: 1.79%); assay type: functional
A549 [30] = test: Induction of apoptosis in human A549 cells assessed as late apoptotic cells at 0.34 uM incubated for 48 hrs by Annexin V/PI staining based flow cytometry analysis (reference value: 2.96%); assay type: functional
A549 [31] = test: Induction of apoptosis in human A549 cells assessed as dead cells at 0.34 uM incubated for 48 hrs by Annexin V/PI staining based flow cytometry analysis (reference value: 4.58%); assay type: functional
A549 [32] = test: Induction of apoptosis in human A549 cells assessed as reduction in Bcl-2 protein expression at 0 to 0.34 uM measured after 48 hrs by Western blot analysis; assay type: functional, cell-based; conditions: dose 0-0.34 µM
A549 [33] = test: Induction of apoptosis in human A549 cells assessed as increase in caspase-3 protein expression at 0 to 0.34 uM measured after 48 hrs by Western blot analysis; assay type: functional, cell-based; conditions: dose 0-0.34 µM
A549 [34] = test: Induction of apoptosis in human A549 cells assessed as increase in BAX protein expression at 0 to 0.34 uM measured after 48 hrs by Western blot analysis; assay type: functional, cell-based; conditions: dose 0-0.34 µM
A549 [35] = test: Downregulation of phosphorylated JNK/JNK protein expression in human A549 cells at 0.11 to 0.34 uM measured after 48 hrs by Western blot analysis; assay type: functional, cell-based; conditions: dose 0.11-0.34 µM
A549 [36] = test: Downregulation of phosphorylated ERK/ERK protein expression in human A549 cells at 0.11 to 0.34 uM measured after 48 hrs by Western blot analysis; assay type: functional, cell-based; conditions: dose 0.11-0.34 µM
A549 [37] = test: Upregulation of phosphorylated p38/p38 protein expression in human A549 cells at 0.11 to 0.34 uM measured after 48 hrs by Western blot analysis; assay type: functional, cell-based; conditions: dose 0.11-0.34 µM

Structure (SMILES): CC[C@@]1(O)C(=O)OCc2c1cc1n(c2=O)Cc2cc3ccccc3nc2-1 [CAMPTOTHECIN]
- IC50 (A549 [1]): 0.39 µM

Structure (SMILES): O=C1c2c(ccc(F)c2Cl)-n2c1nc1nc3ccccc3cc1c2=O
- IC50 (A549 [1]): 0.53 µM
- IC50 (MDA-MB-231): 10.3 µM
- IC50 (HCT-116): 0.33 µM

Structure (SMILES): O=C1c2ccccc2-n2c1nc1nc3ccccc3cc1c2=O
- IC50 (A549 [1]): 0.34 µM
- IC50 (MDA-MB-231): 3.54 µM
- IC50 (HCT-116): 25.2 µM
- IC50 (A549 [2]): 430 nM
- IC50 (A549 [3]): 340 nM
- IC50 (A549 [4]): 250 nM
- inhibition at 0.11 µM (A549 [5]): 22%
- inhibition at 0.22 µM (A549 [6]): 31%
- inhibition at 0.34 µM (A549 [7]): 38%
- inhibition at 0.11 µM (A549 [8]): 50%
- inhibition at 0.22 µM (A549 [9]): 56%
- inhibition at 0.34 µM (A549 [10]): 60%
- Activity (A549 [11]): 72.8%
- Activity (A549 [12]): 5.59%
- Activity (A549 [13]): 22.63%
- Activity (A549 [14]): 62.47%
- Activity (A549 [15]): 8.87%
- Activity (A549 [16]): 25.65%
- Activity (A549 [17]): 60.39%
- Activity (A549 [18]): 9.58%
- Activity (A549 [19]): 29.02%
- Activity (A549 [20]): 67.5%
- Activity (A549 [21]): 7.83%
- Activity (A549 [22]): 17.4%
- Activity (A549 [23]): 7.17%
- Activity (A549 [24]): 66.9%
- Activity (A549 [25]): 8.47%
- Activity (A549 [26]): 18%
- Activity (A549 [27]): 6.65%
- Activity (A549 [28]): 63.4%
- Activity (A549 [29]): 7.39%
- Activity (A549 [30]): 19.9%
- Activity (A549 [31]): 9.32%
- Activity (A549 [32]): Active
- Activity (A549 [33]): Active
- Activity (A549 [34]): Active
- Activity (A549 [35]): Active
- Activity (A549 [36]): Active
- Activity (A549 [37]): Active

Structure (SMILES): N/N=C1\c2ccccc2-n2c1nc1nc3ccccc3cc1c2=O
- IC50 (A549 [1]): > 100 µM
- IC50 (MDA-MB-231): > 100 µM
- IC50 (HCT-116): > 100 µM

Structure (SMILES): O=C1c2cc(F)ccc2-n2c1nc1nc3ccccc3cc1c2=O
- IC50 (A549 [1]): 6.45 µM
- IC50 (MDA-MB-231): 10.1 µM
- IC50 (HCT-116): 15 µM

More lines, now with the values ahead:

- IC50 (A549 [1]): 10.3 µM
- IC50 (MDA-MB-231): 17.6 µM
- IC50 (HCT-116): 13.5 µM
Structure (SMILES): O=C1c2ccccc2-n2c1nc1cc3ccccc3cc1c2=O [BENZO[K]TRYPTANTHRIN]

- IC50 (A549 [1]): > 100 µM
- IC50 (MDA-MB-231): > 100 µM
- IC50 (HCT-116): > 100 µM
Structure (SMILES): O=c1c2cc3ccccc3nc2nc2n1-c1ccccc1/C2=N\O

- IC50 (A549 [1]): 0.43 µM
- IC50 (MDA-MB-231): 10.1 µM
- IC50 (HCT-116): 0.4 µM
Structure (SMILES): O=C1c2cc(F)c(Cl)cc2-n2c1nc1nc3ccccc3cc1c2=O

- IC50 (A549 [1]): 35.1 µM
- IC50 (MDA-MB-231): 1.95 µM
- IC50 (HCT-116): 43.2 µM
Structure (SMILES): Cc1ccc2c(c1Cl)C(=O)c1nc3nc4ccccc4cc3c(=O)n1-2
